According to ChEMBL document CHEMBL1201862, “PubChem BioAssay data set” (2004):
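How tested: cells in 96-well plates exposed to compound for 48 hours at five concentrations. The concentration for 50% growth inhibition is given as GI50.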 Active and inactive are the calls of the source. Rule as the data show it: active = GI50 up to about 1.1 µM and inactive = higher.

Columns and labels:
Test in all cases: growth of human tumour cells (NCI), 48 h
[1] = system: HT-29
[2] = system: EKVX
[3] = system: CCRF-CEM
[4] = system: MCF7
[5] = system: OVCAR-4
[6] = system: HCC 2998
[7] = system: A498
[8] = system: OVCAR-8
[9] = system: SF-268
[10] = system: SR
[11] = system: MOLT-4
[12] = system: IGROV-1
[13] = system: TK-10
[14] = system: NCI-H226
[15] = system: MDA-MB-435
[16] = system: UACC-62
[17] = system: HOP-62
[18] = system: RPMI-8226
[19] = system: Hs-578T
[20] = system: Malme-3M

Measured: GI50

CN(C)c1nc(N)nc(CCl)n1
inactive: [1] 41.1 µM | [2] 18.3 µM | [3] 17.4 µM | [4] 40.2 µM | [5] 19.6 µM | [6] 45.6 µM | [7] 27.9 µM | [8] 35.5 µM | [9] 27.2 µM | [10] 24.9 µM | [11] 18.8 µM | [12] 13.4 µM | [13] 72.8 µM | [14] 36.8 µM | [15] 37.1 µM | [16] 18.9 µM | [17] 17.5 µM | [18] 46 µM | [19] 25.4 µM

C=CCN1C[C@H](C)N([C@H](c2ccc(C(=O)N(CC)CCO)cc2)c2cccc(OC)c2)C[C@H]1C
inactive: [1] 47.6 µM | [2] > 100 µM | [4] 92.9 µM | [5] > 100 µM | [7] 76.6 µM | [8] > 100 µM | [9] > 100 µM | [10] 51.3 µM | [11] 51.5 µM | [12] > 100 µM | [13] > 100 µM | [14] 50.1 µM | [15] > 100 µM | [16] > 100 µM | [20] > 100 µM | [17] > 100 µM | [18] 40 µM | [19] > 100 µM

COc1ccc(/C(Cl)=C(\C=O)c2ccc([N+](=O)[O-])cc2)cc1OC
inactive: [1] 14.2 µM | [2] > 33.3 µM | [3] 2.44 µM | [4] 3.72 µM | [7] 20.5 µM | [8] 7.64 µM | [9] 6.73 µM | [10] 3.03 µM | [11] 3.05 µM | [12] 17.3 µM | [13] 13.4 µM | [14] 11.4 µM | [15] 3.24 µM | [16] 3.92 µM | [20] 14.6 µM | [17] 22.7 µM | [18] 2.87 µM | [19] 5.69 µM

O=C(O)CN1CCN2CCOCCOCCN(CC1)CCN(CC(=O)O)CC2
inactive: [1] > 100 µM | [2] > 100 µM | [3] > 100 µM | [4] > 100 µM | [5] > 100 µM | [7] > 100 µM | [8] > 100 µM | [10] > 100 µM | [12] > 100 µM | [13] > 100 µM | [14] > 100 µM | [15] > 100 µM | [16] > 100 µM | [20] > 100 µM | [17] > 100 µM | [18] > 100 µM | [19] > 100 µM

CC(=O)C1COC(O)C1C (configuration not stated)
inactive: [1] 29.4 µM | [2] 38 µM | [3] 13.5 µM | [4] 20.7 µM | [7] 56.2 µM | [8] 19.5 µM | [9] 17.3 µM | [10] 11.5 µM | [11] 17.9 µM | [12] 17.2 µM | [13] 28.6 µM | [14] 21.4 µM | [15] 16.1 µM | [16] 14 µM | [17] 16.3 µM | [18] 19.7 µM | [19] 24.1 µM

Cn1c2ccccc2c(=S)c2ccccc21
inactive: [1] > 100 µM | [2] > 100 µM | [3] > 100 µM | [4] > 100 µM | [6] > 100 µM | [7] > 100 µM | [8] > 100 µM | [9] > 100 µM | [10] > 100 µM | [11] > 100 µM | [12] > 100 µM | [13] > 100 µM | [14] > 100 µM | [15] > 100 µM | [16] > 100 µM | [17] > 100 µM | [18] > 100 µM | [19] > 100 µM
